According to patent publication US5399585A, “Carboxamides and sulfonamides compounds which have useful pharmaceutical utility” (Hoffmann-La Roche Inc., priority 1989, dated 1995):

These molecules were tested against T1, fibrinogen receptor of blood platelets, glycoprotein IIb/IIIa (Homo sapiens, UniProt P05106+P08514) (assay: Inhibition of fibrinogen binding to immobilized glycoprotein IIb/IIIa (ELISA)). Conditions: purified glycoprotein IIb/IIIa from human blood platelets bound to microtitre plates, read-out: IC50 (concentration of test substance required to inhibit the binding of fibrinogen to the immobilized receptor by 50%).
T1 construct: Glycoprotein IIb/IIIa is obtained from Triton X-100 extracts of human blood platelets; from tissue; host or cells: human blood platelets (Triton X-100 extract)
Method: Glycoprotein IIb/IIIa is obtained from Triton X-100 extracts of human blood platelets and purified by lectin affinity chromatography (Analytical Biochemistry 151, 1985, 169-177) and chromatography on an Arg-Gly-Asp-Ser affinity column (Science 231, 1986, 1559-62). The receptor protein obtained in this way is bound to microtitre plates. The specific binding of fibrinogen to the immobilized receptor is determined using an ELISA system (enzyme-linked immunosorbent assay). The IC50 values hereinafter correspond to that concentration of the test substance required to inhibit the binding of fibrinogen to the immobilized receptor by 50%: […]

T1 sequence (P08514 32-887 limits assumed): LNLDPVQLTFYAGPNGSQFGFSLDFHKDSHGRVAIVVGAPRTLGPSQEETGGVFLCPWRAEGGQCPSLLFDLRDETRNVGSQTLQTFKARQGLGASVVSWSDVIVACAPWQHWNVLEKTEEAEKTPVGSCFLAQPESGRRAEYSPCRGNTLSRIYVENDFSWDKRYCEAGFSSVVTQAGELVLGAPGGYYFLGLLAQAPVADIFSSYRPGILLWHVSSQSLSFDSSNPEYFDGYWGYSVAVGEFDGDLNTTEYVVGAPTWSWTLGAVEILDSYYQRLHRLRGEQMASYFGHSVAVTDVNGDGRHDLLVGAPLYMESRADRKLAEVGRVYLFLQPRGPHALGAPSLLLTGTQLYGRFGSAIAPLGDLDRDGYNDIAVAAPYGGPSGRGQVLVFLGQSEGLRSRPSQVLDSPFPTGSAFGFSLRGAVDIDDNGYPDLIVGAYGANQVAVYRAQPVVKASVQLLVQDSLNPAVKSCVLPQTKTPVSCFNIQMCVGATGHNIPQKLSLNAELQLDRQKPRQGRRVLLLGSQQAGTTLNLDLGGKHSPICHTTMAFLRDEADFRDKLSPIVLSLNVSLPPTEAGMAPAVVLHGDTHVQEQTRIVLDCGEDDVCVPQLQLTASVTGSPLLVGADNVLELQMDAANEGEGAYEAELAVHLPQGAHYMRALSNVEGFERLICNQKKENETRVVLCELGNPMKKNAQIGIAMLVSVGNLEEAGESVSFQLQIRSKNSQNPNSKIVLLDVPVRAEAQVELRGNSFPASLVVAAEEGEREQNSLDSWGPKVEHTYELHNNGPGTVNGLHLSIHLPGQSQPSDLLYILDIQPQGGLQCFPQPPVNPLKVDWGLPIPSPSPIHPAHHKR
T1 sequence (P08514 891-1039 limits assumed): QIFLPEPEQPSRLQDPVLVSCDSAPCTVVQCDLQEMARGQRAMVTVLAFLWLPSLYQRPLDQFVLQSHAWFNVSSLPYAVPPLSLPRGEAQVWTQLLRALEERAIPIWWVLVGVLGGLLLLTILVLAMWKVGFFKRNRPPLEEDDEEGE
T1 sequence (P05106 27-788): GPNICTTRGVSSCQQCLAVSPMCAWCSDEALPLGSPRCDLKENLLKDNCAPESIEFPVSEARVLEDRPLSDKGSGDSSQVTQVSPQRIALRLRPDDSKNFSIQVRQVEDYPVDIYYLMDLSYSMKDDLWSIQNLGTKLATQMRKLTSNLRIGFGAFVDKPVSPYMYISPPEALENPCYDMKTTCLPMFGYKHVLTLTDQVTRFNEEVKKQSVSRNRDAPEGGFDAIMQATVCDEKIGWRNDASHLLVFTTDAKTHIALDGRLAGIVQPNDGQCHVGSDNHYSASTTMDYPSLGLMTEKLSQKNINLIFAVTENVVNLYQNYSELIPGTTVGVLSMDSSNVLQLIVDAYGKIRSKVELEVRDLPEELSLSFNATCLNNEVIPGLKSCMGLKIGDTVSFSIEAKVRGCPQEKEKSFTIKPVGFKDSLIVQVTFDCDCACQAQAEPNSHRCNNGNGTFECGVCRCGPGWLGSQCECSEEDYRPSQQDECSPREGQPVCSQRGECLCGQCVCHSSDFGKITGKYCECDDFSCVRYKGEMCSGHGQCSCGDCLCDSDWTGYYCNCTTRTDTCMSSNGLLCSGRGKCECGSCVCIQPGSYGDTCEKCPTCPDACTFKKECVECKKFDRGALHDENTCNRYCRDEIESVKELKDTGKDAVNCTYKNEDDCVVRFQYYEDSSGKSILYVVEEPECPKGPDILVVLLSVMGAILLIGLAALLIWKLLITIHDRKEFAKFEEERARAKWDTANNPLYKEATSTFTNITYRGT

Row | Structure (SMILES) | IC50 [nM]
1 | N=C(N)c1ccc(S(=O)(=O)NCCOc2ccc(CC(=O)O)cc2)cc1 [Example 10, p-[2-(p-amidinophenylsulphonamido)ethoxy]phenylacetic acid] | 640
2 | N=C(N)c1ccc(S(=O)(=O)NCCc2ccc(OCC(=O)O)cc2)cc1 [Example 12, p-[2-(p-amidinobenzenesulphonamido)ethyl]phenoxyacetic acid] | 100
3 | N=C(N)c1ccc(S(=O)(=O)N(CCc2ccc(OCC(=O)O)cc2)Cc2ccccc2)cc1 [Example 18, p-[2-(p-amidino-N-benzylphenylsulphonamido)ethyl]phenoxyacetic acid] | 720
4 | N=C(N)c1ccc(S(=O)(=O)NCCCc2ccc(CC(=O)O)cc2)cc1 [Example 46, p-[3-(p-amidinophenylsulphonamido)propyl]phenylacetic acid] | 300
5 | N=C(N)c1ccc(C(=O)NCCc2ccc(OCC(=O)O)cc2)cn1 [Example 48] | 30
6 | COC(=O)COc1ccc(C(=O)CN(C)C(=O)c2ccc(C(=N)N)cc2)cc1OCC(=O)OC [Example 82, dimethyl [4-(p-amidino-N-methylbenzamido)acetyl-o-phenylenedioxy]diacetate] | 8.1
7 | CN(CC(=O)c1ccc(OCC(=O)O)c(OCC(=O)O)c1)C(=O)c1ccc(C(=N)N)cc1 [Example 83, [4-(p-amidino-N-methylbenzamido)acetyl-o-phenylenedioxy]diacetic acid] | 0.07

More lines, now with the values ahead:

Row | IC50 [nM] | Structure (SMILES)
8 | 40 | C[C@H](Cc1ccc([C@H](C)CC(=O)O)s1)NC(=O)c1ccc(C(=N)N)cc1 (racemic) [Example 40, (RS)-5-[(RS)-2-(p-amidinobenzamido)propyl]-β-methyl-2-thiophene-propionic acid]
9 | 370 | COC(=O)COc1ccc(CCNC(=O)c2ccc(C(=N)N)cc2)cc1 [Example 1, Methyl p-[2-(p-amidinobenzamido)ethyl]phenoxyacetate]
10 | 40 | N=C(N)c1ccc(C(=O)NCCc2ccc(OCC(=O)O)cc2)cc1 [Example 2, p-[2-(amidinobenzamido)ethyl]phenoxyaceticacid]
11 | 470 | N=C(N)c1ccc(S(=O)(=O)NCC(O)c2ccc(OCC(=O)O)cc2)cc1 (centres unmarked) [Example 20, p-[2-(p-amidinobenzenesulphonamido)-1-hydroxyethyl]phenoxyacetic acid]
12 | 100 | CC(CC(=O)O)c1ccc(CCNS(=O)(=O)c2ccc(C(=N)N)cc2)cc1 (stereo not drawn) [Example 36, p-[2-(p-amidinophenylsulphonamido)ethyl]-β-methyl-hydrocinnamic acid]
13 | 970 | N=C(N)c1ccc(CC(=O)NCc2ccc(OCC(=O)O)cc2)cc1 [Example 78, p-[2-(p-amidinophenyl)acetamido]-p-tolyloxyacetic acid]
14 | 80 | N=C(N)c1ccc(C(=O)N[C@@H](CO)Cc2ccc(OCC(=O)O)cc2)cc1 [Example 81, p-[(R)-2-(p-amidinobenzamido)-3-hydroxypropyl)phenoxyacetic acid]
